Results as given in patent US3993765A, “1-Propyl-triazolyl antimycotic compositions and methods of treating mycoses” (Bayer Aktiengesellschaft, priority 1973, dated 1976).
In brackets after ≈: the same amount, converted by molar mass.

Experiments:
[1] = test system: Trichophyton mentagrophytes; assay: Antimycotic activity in vitro (series dilution test), Trichophyton mentagrophytes; assay type: cell-based; conditions: growth no longer detectable, Sabourauds' milieu d'epreuve, 28° C, 24 to 96 hours, read-out: Minimum inhibitory concentration
Candida albicans = assay: Antimycotic activity in vitro (series dilution test), Candida albicans; assay type: cell-based; conditions: growth no longer detectable, Sabourauds' milieu d'epreuve, 28° C, 24 to 96 hours, read-out: Minimum inhibitory concentration
Penicillium commune = assay: Antimycotic activity in vitro (series dilution test), Penicillium commune; assay type: cell-based; conditions: growth no longer detectable, Sabourauds' milieu d'epreuve, 28° C, 24 to 96 hours, read-out: Minimum inhibitory concentration
Candida = assay: Action in candidosis of mice; assay type: in vivo; conditions: mice SPF-CF1; 100 mg/kg orally one hour before and seven hours after i.v. infection; survivors on 6th day
Experimental: b. Candidosis of mice Mice of type SPF-CF1 were infected intravenously with 1-2 × 10^6 of logarithmically growing Candida cells which were suspended in physiological sodium chloride solution. One hour before and seven hours after the infection, the animals were treated orally, in each case with 100 mg of the preparations/kg of body weight. Untreated animals died of the infection 3 to 6 days after the infection. The survival rate on the 6th day after infection was about 5% in the case of untreated control animals.

Row | Structure (SMILES) | MIC [1] [µg/mL] | MIC (Candida albicans) [µg/mL] | MIC (Penicillium commune) [µg/mL] | Action in candidosis of mice (Candida)
1 | CC(C)(C)C(O)C(Cn1cncn1)Oc1cccc(Cl)c1 (stereo not drawn) | > 64 | > 64 | > 64 | –
2 | CC(C)(C)C(O)C(Cn1cncn1)Oc1ccc(F)cc1 (stereo not drawn) | 64 (≈ 218 µM) | – | 64 (≈ 218 µM) | –
3 | Cc1cccc(OC(Cn2cncn2)C(O)C(C)(C)C)c1C (stereo not drawn) | – | 64 (≈ 211 µM) | 64 (≈ 211 µM) | –
4 | CC(C)(C)C(O)C(Cn1cncn1)Oc1ccc(Cl)cc1Cl (stereo not drawn) | 4 (≈ 11.6 µM) | – | > 64 | –
5 | CC(C)(C)C(O)C(Cn1cncn1)Oc1ccccc1Cl (stereo not drawn) [drawing 4] | 32 (≈ 103 µM) | – | > 64 | –
6 | CC(C)(C)C(O)C(Cn1cncn1)Oc1ccccc1Cl (stereo not drawn) [Example 4] | – | – | – | ++++ (good action = 80% survivors on the 6th day after infection)
7 | CC(C)(C)C(O)C(Cn1cncn1)Oc1cc(Cl)ccc1Cl (stereo not drawn) [Example 7] | – | – | – | ++++ (good action = 80% survivors on the 6th day after infection)
8 | CC(C)(C)C(O)C(Cn1cncn1)Oc1cc(Cl)ccc1Cl (stereo not drawn) [drawing 6] | 32 (≈ 93 µM) | – | > 64 | –
